According to patent US8058311B2, “Imaging 18F or 11C-labelled alkylthiophenyl guanidines” (Hammersmith Imanet Limited, priority 2005, dated 2011):

Assay: Biodistribution: radioactivity in rat peripheral organs and body fluids after intravenous injection
Type: in vivo
Method: N-(2-Chloro-5-(2-[^18F]fluoro-ethylthio))-phenyl-N′-(3-methylthio)-phenyl-N′-methylguanidine was prepared according to Example 4 (synthesis formulation ˜3% ethanol in 0.9% w/v saline solution) with a radiochemical purity of ˜99% and, at time of injection, the specific activity ranged from 4-16 GBq/nmol^−1. Biodistribution and blood data were from 11 adult male Sprague-Dawley rats (body weight range, 269 to 329 g; mean±S.E.=300±18 g). N-(2-Chloro-5-(2-[^18F]fluoro-ethylthio))-phenyl-N′-(3-methylthio)-phenyl-N′-methylguanidine was injected directly into the tail vein of each rat whilst under isoflurane anaesthesia. Each animal was then allowed to recover from anaesthesia. At designated times after injection, rats were sacrificed by cervical dislocation under anaesthesia and brain and body tissues were rapidly sampled.
The data were acquired using two syntheses. Rats were given an average of 86 MBq (85.3 MBq for first experimental day and 87.3 MBq for the second experimental day), in a volume of 0.20 ml (synthesis formulation ˜3% alcohol), via direct intravenous injection through the tail vein. The mass of co-injected N-(2-Chloro-5-(2-[^18F]fluoro-ethylthio))-phenyl-N′-(3-methylthio)-phenyl-N′-methylguanidine ranged from 0.7-2.9 nmol.kg^−1. Details of the methodology, together with processing and counting of the samples can be found in Hume et al., Nucl. Med. Biol. (1991) 18: 339-351. Data were normalised for injected radioactivity and body weight, giving: ‘uptake units’=(cpm.g^−1 wet weight tissue)·(injected cpm.g^−1 body weight)^−1 Results
Radioactivity concentration data are additionally collated in Tables 1 (peripheral tissue) and 2 (brain). As metabolite studies were not carried out, the proportion of the total radioactivity reflecting label associated with parent N-(2-Chloro-5-(2-[^18F]fluoro-ethylthio))-phenyl-N′-(3-methylthio)-phenyl-N′-methylguanidine is not known. Note, Blood and plasma samples were collected post-mortem from the heart ventricle.

radioactivity in bone (2 min, n = 1): 1.355 uptake units
radioactivity in fat (2 min, n = 1): 0.199 uptake units
radioactivity in heart (ventricle) (2 min, n = 1): 6.412 uptake units
radioactivity in kidney (2 min, n = 1): 12.975 uptake units
radioactivity in large intestinal content (2 min, n = 1): 0.113 uptake units
radioactivity in large intestine (2 min, n = 1): 3.338 uptake units
radioactivity in liver (2 min, n = 1): 5.251 uptake units
radioactivity in lung (2 min, n = 1): 32.475 uptake units
radioactivity in skeletal muscle (2 min, n = 1): 0.288 uptake units
radioactivity in skin (2 min, n = 1): 0.338 uptake units
radioactivity in small intestinal content (2 min, n = 1): 1.390 uptake units
radioactivity in small intestine (2 min, n = 1): 4.537 uptake units
radioactivity in spleen (2 min, n = 1): 3.985 uptake units
radioactivity in stomach (2 min, n = 1): 0.843 uptake units
radioactivity in testis (2 min, n = 1): 0.456 uptake units
radioactivity in urine (2 min, n = 1): 0.109 uptake units
radioactivity in bone (5 min, n = 1): 1.440 uptake units
radioactivity in fat (5 min, n = 1): 0.814 uptake units
radioactivity in heart (ventricle) (5 min, n = 1): 2.761 uptake units
radioactivity in kidney (5 min, n = 1): 10.113 uptake units
radioactivity in large intestinal content (5 min, n = 1): 0.148 uptake units
radioactivity in large intestine (5 min, n = 1): 3.442 uptake units
radioactivity in liver (5 min, n = 1): 5.648 uptake units
radioactivity in lung (5 min, n = 1): 25.015 uptake units
radioactivity in skeletal muscle (5 min, n = 1): 0.517 uptake units
radioactivity in skin (5 min, n = 1): 0.517 uptake units
radioactivity in small intestinal content (5 min, n = 1): 1.449 uptake units
radioactivity in small intestine (5 min, n = 1): 3.845 uptake units
radioactivity in spleen (5 min, n = 1): 3.676 uptake units
radioactivity in stomach (5 min, n = 1): 1.245 uptake units
radioactivity in testis (5 min, n = 1): 0.528 uptake units
radioactivity in urine (5 min, n = 1): 16.760 uptake units
radioactivity in bone (10 min, n = 2): 0.793 uptake units
radioactivity in fat (10 min, n = 2): 0.234 uptake units
radioactivity in heart (ventricle) (10 min, n = 2): 1.119 uptake units
radioactivity in kidney (10 min, n = 2): 3.931 uptake units
radioactivity in large intestinal content (10 min, n = 2): 0.109 uptake units
radioactivity in large intestine (10 min, n = 2): 1.359 uptake units
radioactivity in liver (10 min, n = 2): 3.199 uptake units
radioactivity in lung (10 min, n = 2): 10.229 uptake units
radioactivity in skeletal muscle (10 min, n = 2): 0.391 uptake units
radioactivity in skin (10 min, n = 2): 0.248 uptake units
radioactivity in small intestinal content (10 min, n = 2): 1.162 uptake units
radioactivity in small intestine (10 min, n = 2): 1.618 uptake units
radioactivity in spleen (10 min, n = 2): 3.008 uptake units
radioactivity in stomach (10 min, n = 2): 0.532 uptake units
radioactivity in testis (10 min, n = 2): 0.363 uptake units
radioactivity in urine (10 min, n = 2): 13.589 uptake units
radioactivity in bone (30 min, n = 3): 1.014 ± 0.019 uptake units
radioactivity in fat (30 min, n = 3): 0.613 ± 0.175 uptake units
radioactivity in heart (ventricle) (30 min, n = 3): 0.740 ± 0.019 uptake units
radioactivity in kidney (30 min, n = 3): 3.287 ± 0.208 uptake units
radioactivity in large intestinal content (30 min, n = 3): 0.445 ± 0.035 uptake units
radioactivity in large intestine (30 min, n = 3): 1.619 ± 0.494 uptake units
radioactivity in liver (30 min, n = 3): 6.023 ± 0.699 uptake units
radioactivity in lung (30 min, n = 3): 3.786 ± 0.292 uptake units
radioactivity in skeletal muscle (30 min, n = 3): 0.487 ± 0.036 uptake units
radioactivity in skin (30 min, n = 3): 0.491 ± 0.019 uptake units
radioactivity in small intestinal content (30 min, n = 3): 6.002 ± 3.338 uptake units
radioactivity in small intestine (30 min, n = 3): 2.241 ± 0.617 uptake units
radioactivity in spleen (30 min, n = 3): 2.713 ± 0.086 uptake units
radioactivity in stomach (30 min, n = 3): 1.558 ± 0.443 uptake units
radioactivity in testis (30 min, n = 3): 0.619 ± 0.081 uptake units
radioactivity in urine (30 min, n = 3): 49.593 ± 30.733 uptake units
radioactivity in bone (60 min, n = 3): 0.944 ± 0.305 uptake units
radioactivity in fat (60 min, n = 3): 0.405 ± 0.358 uptake units
radioactivity in heart (ventricle) (60 min, n = 3): 0.505 ± 0.104 uptake units
radioactivity in kidney (60 min, n = 3): 2.429 ± 0.527 uptake units
radioactivity in large intestinal content (60 min, n = 3): 1.176 ± 1.109 uptake units
radioactivity in large intestine (60 min, n = 3): 7.291 ± 10.308 uptake units
radioactivity in liver (60 min, n = 3): 3.659 ± 0.822 uptake units
radioactivity in lung (60 min, n = 3): 2.387 ± 0.195 uptake units
radioactivity in skeletal muscle (60 min, n = 3): 0.410 ± 0.096 uptake units
radioactivity in skin (60 min, n = 3): 0.435 ± 0.109 uptake units
radioactivity in small intestinal content (60 min, n = 3): 10.518 ± 7.766 uptake units
radioactivity in small intestine (60 min, n = 3): 1.841 ± 0.678 uptake units
radioactivity in spleen (60 min, n = 3): 1.675 ± 0.135 uptake units
radioactivity in stomach (60 min, n = 3): 1.227 ± 0.351 uptake units
radioactivity in testis (60 min, n = 3): 0.605 ± 0.150 uptake units
radioactivity in urine (60 min, n = 3): 23.375 ± 18.208 uptake units
radioactivity in bone (90 min, n = 1): 0.889 uptake units
radioactivity in fat (90 min, n = 1): 0.548 uptake units
radioactivity in heart (ventricle) (90 min, n = 1): 0.464 uptake units
radioactivity in kidney (90 min, n = 1): 2.127 uptake units
radioactivity in large intestinal content (90 min, n = 1): 0.764 uptake units
radioactivity in large intestine (90 min, n = 1): 0.775 uptake units
radioactivity in liver (90 min, n = 1): 2.856 uptake units
radioactivity in lung (90 min, n = 1): 2.150 uptake units
radioactivity in skeletal muscle (90 min, n = 1): 0.357 uptake units
radioactivity in skin (90 min, n = 1): 0.387 uptake units
radioactivity in small intestinal content (90 min, n = 1): 8.700 uptake units
radioactivity in small intestine (90 min, n = 1): 1.942 uptake units
radioactivity in spleen (90 min, n = 1): 1.418 uptake units
radioactivity in stomach (90 min, n = 1): 1.103 uptake units
radioactivity in testis (90 min, n = 1): 0.559 uptake units
radioactivity in urine (90 min, n = 1): 26.947 uptake units
de-fluorination (from bone uptake) (90 minutes): no evidence of de-fluorination
uptake in lung (at 90 minutes): 2 uptake units
initial uptake in bone (initial): 1.4
initial uptake in lung (initial): ~30 uptake units
initial content in skeletal muscle, skin and testis (low, retained over the course of the experiment): ~0.4 uptake units
uptake in bone after decrease (over the 90 minutes of the experiment): ~0.8
SMILES: CSc1cccc(N(C)C(=N)Nc2cc(SCC[18F])ccc2Cl)c1 [N-(2-Chloro-5-(2-[^18F]fluoro-ethylthio))-phenyl-N′-(3-methylthio)-phenyl-N′-methylguanidine]
peripheral clearance route: via kidney to urine and via the intestine
